{
  "source": "patent US20050043396A1",
  "about": "“5-Benzoylamino-1,3-dioxacyclanes, the method for preparing the same and their use as PKC inhibitor” (priority 2003, published 2005)",
  "system": "model of the ear swilling of mice",
  "assay": "Anti-inflammatory activity: xylene-induced ear swelling of mice (recognized PKC inhibitor model)",
  "format": "in vivo, Male Kunming species mice",
  "experimental": "Based on the knowledge of cycloacetals as structural types of the PKC inhibitors, the PKC inhibitor model recognized (i.e. model of the ear swilling of mice) was adopted to evaluate the activity of cycloacetals 1-21 as PKC inhibitor.\nIn the present invention the model of the ear swilling of mice was used to evaluate the anti-inflammatory activity of 5-benzoylamino-1,3-dioxscyclane compounds. The compounds of the present invention were suspended in CMC solution (5%) at the ratio of […], while the positive control was the suspension of aspirin, and CMC solution (5%) at the ratio of […], and the vehicle control was CMC solution (5%). Male Kunming species mice (from Animal Department of Beijing Medical University, grade 2) with weight about 20-25 g, which were randomly divided into treatment group, vehicle control group, and positive control group with 10 mice each group (food deprivation for 8 hours before testing, drinking unlimited) were administered orally once. 30 minutes after the administration, xylene (0.02 ml) was smeared on the left exterior auricular of the mice, and 4 hours later, the mice were killed by dislocation of cervical vertebra. Double circular pinnae were taken from two ears using 9 mm punching bear, and the swelling was determined by the weight variation of the two pinnae.\nAn adaptation of the method of Gad et al (1986) was employed for sensitization. Mice were allowed to acclimate for a week after arrival in the laboratory, then were screened to remove any from testing which have ears that appear red or swollen. Male Kunming species, 6 to 8 weeks old, about 20-25 g, were shaved and tape stripped at the start of each study. Mice were randomly divided into test group, vehicle control group, and positive control group with 10 mice each one.\n[…] The application was allowed to dry before the animal was returned to its cage. Mice were killed 4 hours later, and a 9-mm Keyes cutaneous punch was used to obtain uniform tissue sections for weight variation which indicating the swelling degree. Groups were statistically analyzed using the Wilk-Shapiro test for normality and the paired parametric Student t test with a significance level of p<0.05. Data were expressed as the mean difference plus or minus the standard error.\nEach mouse in the vehicle control mice group was administered orally 0.2 ml of carboxymethyl cellulose (0.5%) once a day, while each mouse in the positive control group was administered orally suspension of 0.6 mg of aspirin in 0.2 ml of carboxymethyl cellulose (0.5%) once a day, and each mouse in the test group was administed orally the suspension of 0.6 mg of the compounds of the present invention in 0.2 ml of carboxymethyl cellulose (0.5%) once a day. The applications were repeated for three consecutive days.\nAdministered with the same manner and dosage.",
  "key": {"[1]": {"conditions": "administered orally 1 time, 21 mg/kg, n = 10 (Table 2)"}, "[2]": {"conditions": "administered orally 1 time, 30 mg/kg, n = 10 (Table 2)"}, "[3]": {"conditions": "oral once a day for 3 consecutive days, Dosage = 30 mg/Kg, n = 10, weight difference of 9 mm ear punches, xylene"}},
  "note": "Marks after values point to notes of the source that are not given here.",
  "data": [
    {"smiles": "O=CCC1OCCC(NC(=O)c2ccccc2)CO1", "note": "(centres unmarked) [Compound 40]", "values": [
      {"measurement": "Weight variation (X ± SD mg)", "setting": "[1]", "result": "3.55 ± 1.69^3,6) mg"}
    ]},
    {"smiles": "C[C@@H]1O[C@@H](c2ccc([N+](=O)[O-])cc2)OC[C@H]1NC(=O)c1ccccc1", "note": "[Compound 24, (2S,4S,5R)-2-p-nitrophenyl-5-benzoylamino-4-methyl-1,3-dioxane]", "values": [
      {"measurement": "Weight variation (X ± SD mg)", "setting": "dosage-effect relationship, 2.3 mg/Kg (Table 3)", "result": "3.21 ± 1.68", "unit": "mg"},
      {"measurement": "Weight variation (X ± SD mg)", "setting": "dosage-effect relationship, 7 mg/Kg (Table 3)", "result": "1.81 ± 0.63", "unit": "mg"},
      {"measurement": "Weight variation (X ± SD mg)", "setting": "dosage-effect relationship, 30 mg/Kg (Table 3)", "result": "1.43 ± 0.89", "unit": "mg"}
    ]},
    {"smiles": "COC(CC1OCC(NC(=O)c2ccccc2)C(C)O1)OC", "note": "(centres unmarked) [Compound 9]", "values": [
      {"measurement": "Weight variation (X ± SD mg)", "setting": "[2]", "result": "3.28 ± 2.06^3,5) mg"},
      {"measurement": "Weight variation (X ± SD mg)", "setting": "[3]", "result": "3.97 ± 1.49^1) mg"}
    ]},
    {"smiles": "CC(=O)Oc1ccccc1C(=O)O", "note": "[Aspirin, aspirin, reference compound]", "values": [
      {"measurement": "Weight variation (X ± SD mg)", "setting": "[2]", "result": "4.17 ± 1.80^1) mg"},
      {"measurement": "Weight variation (X ± SD mg)", "setting": "[3]", "result": "4.26 ± 1.44^1) mg"}
    ]},
    {"smiles": "O=CCC1OCC(NC(=O)c2ccccc2)CO1", "note": "(centres unmarked) [Compound 38]", "values": [
      {"measurement": "Weight variation (X ± SD mg)", "setting": "[2]", "result": "5.81 ± 2.46", "unit": "mg"}
    ]},
    {"smiles": "COC(CC1OCCC(NC(=O)c2ccccc2)CO1)OC", "note": "(centres unmarked) [Compound 18]", "values": [
      {"measurement": "Weight variation (X ± SD mg)", "setting": "[1]", "result": "4.31 ± 1.75^1) mg"}
    ]},
    {"smiles": "CC1OC(CC=O)OCC1NC(=O)c1ccccc1", "note": "(centres unmarked) [Compound 39]", "values": [
      {"measurement": "Weight variation (X ± SD mg)", "setting": "[2]", "result": "4.84 ± 2.30^1) mg"}
    ]}
  ]
}
